Experimental findings from PubChem BioAssay AID2387 (Broad Institute, 2010) are described below.

Activity calls are given as the source filed them.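 Rule for the calls: active = fitted EC50 no more than tenfold above the highest tested concentration; inconclusive = flat fit with 30 to 70% signal loss, or poor fit; inactive = the rest.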

The subject of the assay is Candida albicans CaCi-2 growth (no fluconazole), Alamar Blue. The assay is described as follows: C. albicans growth inhibition without fluconazole, dose response, counter-screen for fluconazole resistance reversal project, CaCi-2 strain, Alamar Blue fluorescence (AID 2387). To be noted: C. albicans CaCi-2 (fluconazole-resistant clinical isolate) growth without fluconazole, 48 h. A general note: Counterscreens check selectivity or assay interference.
With `Nc1nonc1-n1nnc(C(=O)N/N=C/c2cc(Br)ccc2O)c1CNc1ccccc1`, the EC50 – broadly, the midpoint of the concentration-response curve – was > 16 µM (inactive).

Turning to `O=[N+]([O-])c1ccc(O)c(/C=N/Nc2ccc(Cl)nn2)c1`, the EC50 was 9.85 µM.

`C[C@@H]1CC[C@@]2(NC1)O[C@H]1C[C@H]3[C@@H]4CC=C5C[C@@H](O)CC[C@]5(C)[C@H]4CC[C@]3(C)[C@H]1[C@@H]2C`: the EC50 is > 16 µM (inactive).

`CCCCC(=O)NC(c1ccc(Cl)cc1)c1ccc2cccnc2c1O` (stereo not drawn): the EC50 is 9.92 µM.

Regarding `Cc1ccc(NC(=O)c2noc(C(C)C)c2[N+](=O)[O-])cc1`, the EC50 was > 16 µM (inactive).

Take `CC(C)(C)c1ccc(Cc2n[nH]c(=S)[nH]c2=O)cc1`: the EC50 is > 16 µM (inactive).

On to `CC1(O)CC(c2ccc(Cl)cc2)=NN1C(=O)c1ccc([N+](=O)[O-])cc1` (stereo not drawn), for which the EC50 was > 16 µM (inactive).

Turning to `O=C(N/N=C/c1cc2c3c(c1O)CCCN3CCC2)c1ccccc1O`, the EC50 was 2.15 µM.

Take `COc1ccc(C(NC(=O)C(C)C)c2ccc3cccnc3c2O)cc1` (stereo not drawn): the EC50 was > 15 µM (inactive).

For `O=C(Nc1sc2c(c1C(=O)c1ccc(Cl)cc1)CCCC2)c1cccnc1`, the EC50 is > 15 µM (inactive).

In the case of `CCCn1nc([N+](=O)[O-])c(C(C#N)c2nc3ccccc3s2)c(Cl)c1=O` (stereo not drawn), the EC50 is > 16 µM (inactive).

On to `CCCCC(=O)NC(c1ccc(N(CC)CC)cc1)c1ccc2cccnc2c1O` (stereo not drawn), for which the EC50 is 8.6 µM.

For the molecule `COc1ccc(C(=O)NNC(=S)NC(=O)c2ccc(Cl)cc2)cc1`, the EC50 was > 16 µM (inactive).

For `COc1ccc(N(CC(=O)Nc2ccccc2C(N)=O)S(=O)(=O)c2ccc(C)c([N+](=O)[O-])c2)cc1`, the EC50 was > 16 µM (inactive).

`O=C(NNc1nc2ccc(Cl)cc2s1)c1cc(-c2cccs2)nc2ccccc12`: the EC50 is > 16 µM (inactive).

For `CCC(C)n1cnc2c(c1=O)c1nc3ccccc3nc1n2Cc1ccc(OC)cc1` (stereo not drawn), the EC50 is > 16 µM (inactive).

As to `CCN1CCN(C(c2cccnc2)c2cc(Cl)c3cccnc3c2O)CC1` (stereo not drawn), the EC50 is 15.6 µM.

`C=CCN(CC=C)Cc1c(O)ccc2c(=O)c(-c3ccccc3)coc12`: the EC50 is > 15 µM (inactive).

With `CCNc1nc(N)nc(-c2cc(Cl)ccc2O)n1`, the EC50 was > 15 µM (inactive).

Consider `CC1=C(CC[C@@H](C)CO)OC2CC3C4CCC5CC(O)CCC5(C)C4CC(=O)C3(C)C12` (stereo partly drawn), for which the EC50 was > 15 µM (inactive).

Regarding `C/C(=N\NC(=O)c1cc2ccccc2cc1O)c1ccccn1`, the 50% effective concentration (EC50) was 9.98 µM.

In the case of `Cc1ccc(C(=O)Nc2cccc(-c3cn4ccccc4n3)c2)cc1`, the EC50 is > 16 µM (inactive).

With `Cc1cc(C)cc(OCC(=O)NNC(=S)NC(=O)C2CC2)c1`, the EC50 was > 15 µM (inactive).

Take `CCNC(=S)NNC(=O)c1cc(-c2ccccc2C)nc2ccccc12`: the EC50 is > 16 µM (inactive).

Take `Clc1ccc2c(c1)C(c1cccs1)=NNC(c1cccnc1)=N2`: the EC50 was > 15 µM (inactive).

Turning to `COc1ccc(-n2c(-c3cccc(C)c3[N+](=O)[O-])n[nH]c2=S)cc1`, the EC50 is > 15 µM (inactive).

For the molecule `Cc1ccc(NC(=O)CNC(=O)c2ccc(Oc3ccccc3)cc2)nc1`, the EC50 is > 15 µM (inactive).

As for `CCCCC(=O)NC(c1ccccc1)c1ccc2cccnc2c1O` (stereo not drawn), the EC50 was > 15 µM (inactive).

Regarding `C=CCNC(=S)Nc1sc2c(c1C(=O)OCC)CC(C)(CC)OC2` (stereo not drawn), the EC50 is > 15 µM (inactive).

On to `Oc1cccc(C(Nc2nccs2)c2ccc3cccnc3c2O)c1` (stereo not drawn), for which the EC50 is > 16 µM (inactive).

Consider `CC(=O)c1sc(NC(=O)CCS(=O)(=O)c2ccccc2)nc1C`, for which the EC50 was > 15 µM (inactive).

Consider `CCc1cc(=S)n2c([nH]c3ccccc32)c1C#N`, for which the EC50 was > 15 µM (inactive).

Turning to `Cc1cccc(C(=O)NNC2=C(C(=O)C(F)(F)F)CCC2)c1O`, the EC50 is > 16 µM (inactive).

In the case of `CCOC(=O)c1c(-c2ccccc2Cl)cn2ccccc12`, the EC50 is > 16 µM (inactive).

For the molecule `C[C@@H]1C[C@@H]2O[C@H]2/C=C\C=C\C(=O)Cc2c(Cl)c(O)cc(O)c2C(=O)O1`, the EC50 was > 16 µM (inactive).

For the molecule `Cc1ccc(Nc2nc(N)c([N+](=O)[O-])c(N3CCC(C)CC3)n2)cc1C`, the EC50 is > 15 µM (inactive).

For the molecule `COc1ccccc1OCC(=O)N/N=C/C=C/c1ccc([N+](=O)[O-])o1`, the EC50 is > 16 µM (inactive).

As for `Cc1ccc(-n2nc(C)c3c(C)cc(=O)[nH]c32)cc1`, the EC50 is > 15 µM (inactive).

Turning to `O=C(c1cc(-c2ccccc2)n[nH]1)N1CCc2c([nH]c3ccccc23)C1c1ccccn1` (stereo not drawn), the EC50 is > 16 µM (inactive).

`S=c1[nH]nc(C2CCCCC2)n1/N=C/c1ccc(Br)s1`: the EC50 was > 15 µM (inactive).

As for `CCN1/C(=C/c2ccc3cc(C)ccc3[n+]2CC)Sc2ccc3sccc3c21`, the EC50 is 1.75 µM.

As for `CCc1nnc(NC(=O)CSc2ncc(-c3ccccc3)n2C)s1`, the EC50 was > 15 µM (inactive).

In the case of `Cc1ccc(C)c(-c2nnc(NC(=O)c3ccco3)o2)c1`, the EC50 was > 16 µM (inactive).

For the molecule `O=C(N/N=C/c1sc2ccccc2c1O)c1cccc2ccccc12`, the EC50 was > 16 µM (inactive).

Regarding `Cc1cc(Br)ccc1OCC(=O)NNC(=O)C(=O)Nc1ccccc1`, the EC50 was > 15 µM (inactive).

Turning to `COc1ccc(C2c3ccc4ccccc4c3Oc3ncn(CCN4CCOCC4)c(=N)c32)cc1` (stereo not drawn), the EC50 is > 16 µM (inactive).

With `O=[N+]([O-])c1cccc(-c2cc(-c3cc(Br)ccc3O)[nH]n2)c1`, the EC50 is > 15 µM (inactive).

For `O=Nc1c(-c2cccc([N+](=O)[O-])c2)nc2ncccn12`, the EC50 is 5.3 µM.

`COc1ccc(-n2nc(C(=O)NCC(=O)NCCC3=CCCCC3)c3ccccc3c2=O)c(OC)c1`: the EC50 was > 15 µM (inactive).

As for `COc1ccc(Cl)cc1C(Nc1cccnc1)c1ccc2cccnc2c1O` (stereo not drawn), the EC50 is 11.8 µM.

In the case of `O=C(Nc1nnc(-c2ccco2)o1)c1cccc(Cl)c1`, the EC50 is > 15 µM (inactive).

As to `COc1ccc(C(c2c(O)ccc3ccccc23)N2CCOCC2)c(OC)c1` (stereo not drawn), the EC50 was > 16 µM (inactive).

Take `Nc1[nH]c(=O)ncc1F`: the EC50 was > 16 µM (inactive).

For the molecule `CC(C)COCc1ccc(O)c2ncccc12`, the concentration for a half-maximal effect (EC50) was 16.1 µM.

As for `COc1cccc(/C=N/Nc2ncnc3scc(-c4ccccc4)c23)c1O`, the EC50 was 6.58 µM.

Take `COc1ccc(-n2cc(-c3ccc(C)cc3)[n+]3c2SCC3)cc1`: the EC50 is > 15 µM (inactive).

For the molecule `Cc1oc2ccc(OC(=O)N(C)C)cc2c1C(=O)OC(C)C`, the EC50 was > 16 µM (inactive).

Take `Cc1cc(C(=O)N/N=C/c2cc(Cl)cc([N+](=O)[O-])c2O)c2ccccc2n1`: the EC50 is > 15 µM (inactive).

On to `N#C/C(=C\c1ccc(N2CCOCC2)cc1)c1ccccc1`, for which the EC50 is > 16 µM (inactive).

Take `O=C(CCS(=O)(=O)c1ccc(Cl)cc1)Nc1nc(-c2ccncc2)cs1`: the EC50 is > 15 µM (inactive).

Take `C(C#CCCCCCCCCC[n+]1ccccc1)#CCCCCCCCCC[n+]1ccccc1`: the 50% effective concentration (EC50) is 2.52 µM.

For `Cc1cc(=O)oc2cc(Oc3ccc([N+](=O)[O-])cc3[N+](=O)[O-])ccc12`, the EC50 was > 16 µM (inactive).

On to `NC(=O)c1c(NC(=O)c2ccco2)sc2c1CCC2`, for which the EC50 is > 15 µM (inactive).
